test system: lesions of papillomatous digital dermatitis (PDD); experiment: Effect of various treatments on lesions of papillomatous digital dermatitis in Holstein cows; assay type: in vivo; conditions: complete therapeutic response; assessed at post-treatment days 7, 14 and 21; herds 5 to 7
Procedure: (§1) The effect of various treatments was assessed on a total of 72 lesions of PDD in 35 cows in […] (herds 4 and 5-7). Treatments consisted of procaine penicillin G (G. C. Hanford Manufacturing Co., Syracuse, N.Y.), 18,000 units/kg IM BID for 3 days (7 cows); ceftiofur sodium (Naxcel®, The Upjohn Co., Kalamazoo, Mich.), 2 mg/kg daily for 3 days (14 cows); oxytetracycline (Terramycin—343®Pfizer Animal Health, N.Y.), single topical application of approximately 5 g of soluble powder bandaged directly onto a clean lesion for 7 days (3 cows); formadelhyde (Fisher Scientific, Pittsburg, Pa.), 39% v/v, single topical application (5 cows); hydrochloric acid (Fisher Scientific, Pittsburg, Pa.), 36% v/v, single topical application (4 cows); surgical excision (4 cows); and chlorodifluoromethane, dimethylether (Brand Spray, Stockman Products Ltd., Castledown, Isle of Man, UK), 2 minutes of topical cryogenic spray until lesion and margin were frozen solid and white (1 cow). Two cows which received no, treatment served as untreated controls. Therapeutic response was assessed at post treatment days: 7 (4 cows), 7 and 14 (23 cows) and 7, 14 and 21 (7 cows). Therapeutic response was considered complete if there was entire transformation of moist, red, raw, prone-to-bleed, painful surfaces to dry, dark brown, firm, rubbery, keratinacious, non-painful surfaces adherent to underlying pink healthy-appearing skin. […] Another 6 lesions of PDD in 4 cows in herd 4 were reexamined 5 weeks after total surgical excision.

Molecule	No. of cows assessed: Responded	No. of lesions assessed: Responded
C=O [Formaldehyde (39%), formadelhyde]	5	8
CO/N=C(\C(=O)N[C@@H]1C(=O)N2C(C(=O)O)=C(CSC(=O)c3ccco3)CS[C@H]12)c1csc(N)n1 [Ceftiofur IM, ceftiofur sodium]	13	41
CN(C)[C@@H]1C(O)=C(C(N)=O)C(=O)[C@@]2(O)C(O)=C3C(=O)c4c(O)cccc4[C@@](C)(O)[C@H]3[C@H](O)[C@@H]12 [Oxytetracycline, topical, oxytetracycline]	3	4
procaine penicillin G [Penicillin G procaine IM]	7	9
Cl [Hydrochloric acid (35%), hydrochloric acid]	2	3

same assay, conditions: determined by desiccation and keratinization of surfaces and absence of pain

Molecule	Mean therapeutic response time [days]
C=O [Formaldehyde (39%), formadelhyde]	7
CO/N=C(\C(=O)N[C@@H]1C(=O)N2C(C(=O)O)=C(CSC(=O)c3ccco3)CS[C@H]12)c1csc(N)n1 [Ceftiofur IM, ceftiofur sodium]	11.1 ± 4.5
CN(C)[C@@H]1C(O)=C(C(N)=O)C(=O)[C@@]2(O)C(O)=C3C(=O)c4c(O)cccc4[C@@](C)(O)[C@H]3[C@H](O)[C@@H]12 [Oxytetracycline, topical, oxytetracycline]	7
procaine penicillin G [Penicillin G procaine IM]	8.2 ± 2.5
Cl [Hydrochloric acid (35%), hydrochloric acid]	7

same assay, conditions: in vivo

Molecule	Incomplete responses, number of cows [cows]	Therapeutic response of PDD lesions (in words)
CO/N=C(\C(=O)N[C@@H]1C(=O)N2C(C(=O)O)=C(CSC(=O)c3ccco3)CS[C@H]12)c1csc(N)n1 [Ceftiofur IM, ceftiofur sodium]	2	
Cl [Hydrochloric acid (35%), hydrochloric acid]	2	persistence of small painful deep ulcers

test system: lesions of papillomatous digital dermatitis (PDD); experiment: Prevalence of recurrent and new PDD lesions at follow-up examination of treated cows; assay type: in vivo, Holstein cows; conditions: 7-12 weeks after complete response
Procedure: as §1

Molecule	Recurrence and new-lesion development (in words)
CO/N=C(\C(=O)N[C@@H]1C(=O)N2C(C(=O)O)=C(CSC(=O)c3ccco3)CS[C@H]12)c1csc(N)n1 [Ceftiofur IM, ceftiofur sodium]	Recurrence and new-lesion-development were observed
procaine penicillin G [Penicillin G procaine IM]	Recurrence and new-lesion-development were observed
Cl [Hydrochloric acid (35%), hydrochloric acid]	New lesions occurred

same assay, conditions: lesion at a previously non-affected site; cows that completely responded 7-12 weeks before follow-up

Molecule	New: Cows n	New: Lesions n
C=O [Formaldehyde (39%), formadelhyde]	0	0
CO/N=C(\C(=O)N[C@@H]1C(=O)N2C(C(=O)O)=C(CSC(=O)c3ccco3)CS[C@H]12)c1csc(N)n1 [Ceftiofur IM, ceftiofur sodium]	2	2
procaine penicillin G [Penicillin G procaine IM]	2	4
Cl [Hydrochloric acid (35%), hydrochloric acid]	2	3

same assay, conditions: recurrence at a previously responsive affected site; cows that completely responded 7-12 weeks before follow-up

Molecule	Recurrent: Cows n	Recurrent: Lesions n
C=O [Formaldehyde (39%), formadelhyde]	0^	0
CO/N=C(\C(=O)N[C@@H]1C(=O)N2C(C(=O)O)=C(CSC(=O)c3ccco3)CS[C@H]12)c1csc(N)n1 [Ceftiofur IM, ceftiofur sodium]	4^|	6
procaine penicillin G [Penicillin G procaine IM]	1^|	1
Cl [Hydrochloric acid (35%), hydrochloric acid]	0^	0

From patent publication US20030086947A1, “Vaccine against papillomatous digital dermatitis (PDD)” (TOWNSEND AND TOWNSEND AND CREW, priority 1997, published 2003)
